Laboratory results from PMC4468940, “Glucose-tolerant β-glucosidase retrieved from a Kusaya gravy metagenome” (Frontiers in Microbiology, 2015).

Assays:
[1] = system: T1, Ks5A7; experiment: p-nitrophenol release, […] nm, initial rates; assay type: biochemical, metagenome (uncultured bacterium, Kusaya gravy); details: McIlvaine buffer pH 5.5, 45°C, no glucose added
T1 construct: full length, 452 aa, 52,509 Da (53,573 Da tagged), C-terminal 6xHis tag (pET29b, primer-encoded LE linker) kept; E. coli Rosetta (DE3); ~160 kDa by gel filtration; GH1; N-terminus from primer MMKFNENFVWG, C-terminus IEENGENL; silent NdeI site removal

[2] = system: T1, Ks5A7; experiment: released glucose, Amplex Red glucose oxidase assay; assay type: biochemical, metagenome (uncultured bacterium, Kusaya gravy); details: McIlvaine buffer pH 5.5, 45°C
Description: released glucose, Amplex Red glucose oxidase assay on Ks5A7

| SMILES | Km [1] [µM] | Km [2] [µM] |
| --- | --- | --- |
| OC[C@H]1O[C@@H](O[C@H]2[C@H](O)[C@@H](O)[C@H](O[C@H]3[C@H](O)[C@@H](O)[C@H](O[C@H]4[C@H](O)[C@@H](O)C(O)O[C@@H]4CO)O[C@@H]3CO)O[C@@H]2CO)[C@H](O)[C@@H](O)[C@@H]1O (stereo partly drawn) [Cellotetraose] |  | 160 ± 12 |
| OC[C@H]1O[C@@H](O[C@H]2[C@H](O)[C@@H](O)C(O)O[C@@H]2CO)[C@H](O)[C@@H](O)[C@@H]1O (stereo partly drawn) [Cellobiose] |  | 358 ± 55 |
| OC[C@H]1O[C@@H](O[C@H]2[C@H](O)[C@@H](O)[C@H](O[C@H]3[C@H](O)[C@@H](O)[C@H](O[C@H]4[C@H](O)[C@@H](O)[C@H](O[C@H]5[C@H](O)[C@@H](O)C(O)O[C@@H]5CO)O[C@@H]4CO)O[C@@H]3CO)O[C@@H]2CO)[C@H](O)[C@@H](O)[C@@H]1O (stereo partly drawn) [Cellopentaose] |  | 132 ± 11 |

Results, then the compound that gave them:

| Km [1] [µM] | Km [2] [µM] | SMILES |
| --- | --- | --- |
| 152 ± 4 |  | C[C@H]1O[C@@H](Oc2ccc([N+](=O)[O-])cc2)[C@H](O)[C@@H](O)[C@H]1O [pNPFuc] |
| 78 ± 2 |  | O=[N+]([O-])c1ccc(O[C@@H]2O[C@H](CO)[C@@H](O)[C@H](O)[C@H]2O)cc1 [pNPGlc] |
|  | 163 ± 16 | OC[C@H]1O[C@@H](O[C@H]2[C@H](O)[C@@H](O)[C@H](O[C@H]3[C@H](O)[C@@H](O)C(O)O[C@@H]3CO)O[C@@H]2CO)[C@H](O)[C@@H](O)[C@@H]1O (stereo partly drawn) [Cellotriose] |
